Reference: patent US10100372B2, “Recombinant RSV reporter virus” (priority 2014, dated 2018)
Read-outs that look alike come from different tables or passages of the source.

Tests used:
[1] = system: recRSV A2-L19F-renilla; assay: microbe, parasite or virus in culture; type: cell-based; details: BEAS-2B, 95% confidence interval in parentheses, inactive = less than 50% reduction of mean reporter signal; for EC50: read-out: EC50 RSV A2-L19F-renilla
[2] = system: recIAV WSN-NanoLuc; details: for SI [CC50/EC50] IAV: SIIAV
[3] = system: recRSV A2-L19FD489E-fireSMASh
[4] = in vitro; details: human
[5] = system: BEAS-2B cells; details: highest concentration 10 μM, tox = less than 50% cell viability after 44 hours at ≤10 μM
[6] = system: RSV A2 strain; details: cited from earlier work
[7] = biological target: RSV F protein (Human respiratory syncytial virus, UniProt P12568); details: resistance sites in the RSV F protein; cited from earlier work
Chain of RSV F protein (P12568 137-574 limits assumed): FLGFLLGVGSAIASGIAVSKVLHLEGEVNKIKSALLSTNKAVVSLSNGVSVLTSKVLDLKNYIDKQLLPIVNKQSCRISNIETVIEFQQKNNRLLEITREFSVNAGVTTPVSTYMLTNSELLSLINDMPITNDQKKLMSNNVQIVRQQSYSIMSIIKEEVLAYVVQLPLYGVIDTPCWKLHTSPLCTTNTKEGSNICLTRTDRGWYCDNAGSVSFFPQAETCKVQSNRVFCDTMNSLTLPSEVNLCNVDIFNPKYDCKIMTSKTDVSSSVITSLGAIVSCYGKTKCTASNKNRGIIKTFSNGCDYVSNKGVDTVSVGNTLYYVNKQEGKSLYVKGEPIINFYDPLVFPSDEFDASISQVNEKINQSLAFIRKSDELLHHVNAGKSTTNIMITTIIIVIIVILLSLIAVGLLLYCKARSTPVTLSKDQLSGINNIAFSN
Chain of RSV F protein (P12568 26-109 partner limits assumed): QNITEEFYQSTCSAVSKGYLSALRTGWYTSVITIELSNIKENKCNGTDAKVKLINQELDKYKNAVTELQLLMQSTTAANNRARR

[8] = system: recRSV A2-L19FD489E-fireSMASh; assay: microbe, parasite or virus in culture; type: cell-based, Respiratory Syncytial Virus; details: human respiratory syncytial virus, 384-well, four replicate screens, mean ± SD, BEAS-2B co-infection, read-out: % Inhibition (anti-RSV)
[9] = system: recIAV WSN-NanoLuc; assay: microbe, parasite or virus in culture; type: cell-based, influenza virus IAV/WSN/33 (H1N1); details: unidentified influenza virus, WSN, BEAS-2B, read-out: % Inhibition (anti-IAV)
[10] = system: recIAV WSN-NanoLuc; assay: microbe, parasite or virus in culture; details: Influenza A virus, BEAS-2B, read-out: EC50 IAV WSN-nanoLuc
[11] = system: recRSV A2-L19FD489E-fireSMASh; assay: microbe, parasite or virus in culture; details: human respiratory syncytial virus, BEAS-2B, read-out: EC50 RSV A2-L19FD489E-fireSMASh
[12] = BEAS-2B, 95% confidence interval in parentheses, inactive = less than 50% reduction of mean reporter signal
[13] = active concentrations based on in vitro assays, when available RSV A2 strain
[14] = human respiratory syncytial virus

CCOC(=O)C1=C(C)NC(C)=C(C(=O)OC)C1c1cccc([N+](=O)[O-])c1 (stereo not drawn) [Nitrendipine]
EC50 RSV A2-L19F-renilla [1]: inactive^e | EC50 IAV WSN-nanoLuc [2, 12]: inactive^e | EC50 RSV A2-L19FD489E-fireSMASh [3, 12]: inactive^e | CC50 [4]: > 10000 nM

Cn1c(=O)c(-c2c(Cl)cccc2Cl)cc2cnc(Nc3ccc(N4CCOCC4)cc3)nc21 [PD173952]
CC50 (PrestoBlue cell viability) [5]: tox^d

CCN(CC)CCOc1ccc(Nc2ncc3cc(-c4c(Cl)cccc4Cl)c(=O)n(C)c3n2)cc1 [PD-166285]
CC50 (PrestoBlue cell viability) [5]: tox^d

c1cnc2c(c1)ccc1cccnc12 [Phenanthroline]
CC50 [4]: 2400 nM

Cc1ccc(O)c(Cn2c(NC3CCN(CCN)CC3)nc3c(C)cccc32)n1 [R170591]
EC50 [6, 13]: 2 nM | reported resistance sites [7]: FF488I FF488L FD489Y

Cc1nc2ccc(CN(C)c3ccc(C(=O)N[C@@H](CCC(=O)O)C(=O)O)s3)cc2c(=O)[nH]1 [Raltitrexed]
inhibition at 5 µM [8]: 91 ± 1% | inhibition at 5 µM [9]: 60 ± 6.5%

NC(=O)c1ncn([C@@H]2O[C@H](CO)[C@@H](O)[C@H]2O)n1 [Ribavirin]
EC50 [1, 14]: 2900 nM | SI [CC50/EC50] IAV [2]: SIIAV >2.2 | SI [CC50/EC50] RSV ([3]; SIRSV): SIRSV >3.9 | CC50 [4]: > 10000 nM | EC50 [10]: 4500 nM | EC50 [11]: 2600 nM

CN(CCOc1ccc(CC2SC(=O)NC2=O)cc1)c1ccccn1 (stereo not drawn) [Rosiglitazone]
inhibition at 5 µM [8]: 85 ± 5.8% | inhibition at 5 µM [9]: 35 ± 5%

C[n+]1cc2c3c(ccc2c2ccc4cc5c(cc4c21)OCO5)OCO3 [Sanguinarine]
CC50 (PrestoBlue cell viability) [5]: tox^d

CCN(CC)CCNC(=O)c1c(C)[nH]c(/C=C2\C(=O)Nc3ccc(F)cc32)c1C [Sunitinib]
CC50 (PrestoBlue cell viability) [5]: tox^d

Cc1ccc(CCCO)c(NCc2ccc3nc(NCCCN4CCOCC4)n(Cc4nc(C)ccc4O)c3c2)c1 [TMC353121]
EC50 [6]: 0.13 nM | reported resistance sites [7]: FK394R FS398L FD486N

Cn1nnc2c(C(N)=O)ncn2c1=O [Temozolomide]
inhibition at 5 µM [8]: 96 ± 1.3% | inhibition at 5 µM [9]: 55 ± 3.2%

Nc1nc(N)c2nc(-c3ccccc3)c(N)nc2n1 [Triamterene]
EC50 RSV A2-L19F-renilla [1]: inactive^e | EC50 IAV WSN-nanoLuc [2, 12]: inactive^e | EC50 RSV A2-L19FD489E-fireSMASh [3, 12]: inactive^e | CC50 [4]: > 10000 nM

CC(C)[C@]12O[C@H]1[C@@H]1O[C@]13[C@]1(O[C@H]1C[C@H]1C4=C(CC[C@@]13C)C(=O)OC4)[C@@H]2O [Triptolide]
inhibition at 5 µM [8]: 1.5 ± 21% | inhibition at 5 µM [9]: 103 ± 1.2% | EC50 [1, 14]: 600 nM | SI (CC50/EC50) value at dose-response testing ([2]; virus not given): below two | CC50 [4]: 300 nM | EC50 [10]: 150 nM | EC50 [11]: 400 nM

Cc1nnnn1/N=C/c1ccc(O)c(C(c2ccc(O)cc2)c2cc(/C=N/n3nnnc3C)ccc2O)c1 [VP-14637]
EC50 [6, 13]: 1.4 nM | reported resistance sites [7]: FT400A FF488Y

CC[C@]1(O)C[C@H]2CN(CCc3c([nH]c4ccccc34)[C@@](C(=O)OC)(c3cc4c(cc3OC)N(C=O)[C@H]3[C@@](O)(C(=O)OC)[C@H](OC(C)=O)[C@]5(CC)C=CCN6CC[C@]43[C@@H]65)C2)C1 [Vincristine]
inhibition at 5 µM [8]: 79 ± 6.9% | inhibition at 5 µM [9]: 50 ± 2.9%

CC(=O)N[C@H]1[C@H]([C@H](O)[C@H](O)CO)OC(C(=O)O)=C[C@@H]1N=C(N)N [Zanamivir]
EC50 RSV A2-L19F-renilla [1]: Inactive | SI [CC50/EC50] IAV [2]: SI^IAV >500 | selectivity for IAV reporter ([2]; dose-response counterscreen): selectively inhibited the IAV reporter | EC50 RSV A2-L19FD489E-fireSMASh [3, 12]: Inactive | CC50 [4]: > 10000 nM | EC50 [10]: 20 nM

ET-18-OCH3
EC50 RSV A2-L19F-renilla [1]: inactive^e | EC50 IAV WSN-nanoLuc [2, 12]: inactive^e | EC50 RSV A2-L19FD489E-fireSMASh [3, 12]: inactive^e | CC50 ([5]; read-out: CC50 (PrestoBlue cell viability)): > 10000 nM

Stattic
EC50 [1]: 15100 nM | SI [CC50/EC50] IAV [2]: SIIAV 3 | EC50 ([2]; read-out: EC50 IAV WSN-nanoLuc, BEAS-2B, 95% confidence interval in parentheses, inactive = less than 50% reduction of mean reporter signal): 3300 nM | EC50 ([3]; read-out: EC50 RSV A2-L19FD489E-fireSMASh, BEAS-2B, 95% confidence interval in parentheses, inactive = less than 50% reduction of mean reporter signal): 5900 nM
